{
  "source": "patent US20250017874A1",
  "about": "“PHARMACEUTICAL COMPOSITIONS FOR USE IN REDUCING HYPERPIGMENTATION” (Caliway Biopharmaceuticals Co., Ltd., priority 2023, published 2025)",
  "type_in_all_cases": "cell-based, mouse",
  "key": {"[1]": {"system": "B16-F10 cell line", "conditions": "for Relative cell viability (%): mouse", "description": "(§1) Table 23 below lists the study design for evaluating EC50 values of IM01, which contains 4-[(E)-2-(3,5-dihydroxyphenyl)ethenyl]benzene-1,3-diol.\n(§2) Table 25 below lists the study design for evaluating EC50 values of IM01, which contains 4-[(E)-2-(3,5-dihydroxyphenyl)ethenyl]benzene-1,3-diol."}, "[2]": {"system": "B16-F10 cells", "assay": "In vitro efficacy comparison: melanin content, α-MSH 0.5 h then test article 30 h (Example 5)", "conditions": "TA 918.27 μM; α-MSH 0.5 h then TA 30 h", "description": "B16-F10 cells were seeded in a 96-well plate. Except the vehicle group, cells of the other groups were cultured in the presence of α-MSH for 0.5 hours first. The compositions for examination were then added to the culture medium and the cells were further cultured for 30 hours. The rest of the experimental conditions and procedures were similar to those described in Example 3. Afterwards, the cells were collected to evaluate the effect of 4-[(E)-2-(3,5-dihydroxyphenyl)ethenyl]benzene-1,3-diol compositions (IM01 Group) and Arbutin and 5-[(E)-2-(4-hydroxyphenyl)ethenyl]benzene-1,3-diol (IM00 Group) compositions on reducing melanin levels. The experimental design is summarized in Table 18 and results shown in both Table 18 and FIG. 5."}, "[3]": {"system": "B16-F10 cell line", "assay": "In vitro whitening efficacy: melanin content (Example 7)", "conditions": "Table 26", "description": "as §1, §2"}, "[4]": {"system": "B16-F10 cells", "assay": "In vitro melanin content versus arbutin and hydroquinone (Example 6)", "description": "Except the vehicle group, cells of the other groups were cultured with α-MSH for 24 hours first. The compositions for investigation (see Tables 19 and 20) were then added to the culture medium and the cells were further cultured for 24 hours. The rest of the experimental operation process was similar to that described in Example 3. […] [table] [table]"}},
  "note": "Where two headings read alike, the source gives them in different places.",
  "data": [
    {"compound": "OC[C@H]1O[C@@H](Oc2ccc(O)cc2)[C@H](O)[C@@H](O)[C@@H]1O", "note": "[Arbutin, reference compound]", "values": [
      {"measurement": "Relative cell viability (%)", "setting": "[1]; 450 μM", "result": "100.8 ± 1.2", "unit": "%"},
      {"measurement": "Relative cell viability (%)", "setting": "[1]; 900 μM", "result": "93.7 ± 1.6", "unit": "%"},
      {"measurement": "Melanin content (%) Mean", "setting": "[2]", "result": 95.8, "unit": "%"},
      {"measurement": "Melanin content (%)", "setting": "[3]; TA 450 μM (Arbutin/L)", "result": "78.5 ± 1.1", "unit": "%"},
      {"measurement": "Melanin content (%)", "setting": "[3]; TA 900 μM (Arbutin/H)", "result": "67.0 ± 2.8", "unit": "%"},
      {"measurement": "Melanin content (%) Mean ± SD", "setting": "[4]; TA 450 μM, Table 21 experiment", "result": "76.1 ± 6.3", "unit": "%"},
      {"measurement": "Melanin content (%) Mean ± SD", "setting": "[4]; TA 900 μM, Table 21 experiment", "result": "60.9 ± 4.5", "unit": "%"},
      {"measurement": "Melanin content (%) Mean ± SD", "setting": "[4]; TA 900 μM, Table 22 experiment", "result": "62.8 ± 1.8", "unit": "%"},
      {"measurement": "Melanin content (%) Mean ± SD", "setting": "[4]; TA 1800 μM, Table 22 experiment", "result": "47.1 ± 0.3", "unit": "%"}
    ]},
    {"compound": "Oc1ccc(O)cc1", "note": "[Hydroquinone, hydroquinone, reference compound]", "values": [
      {"measurement": "Cytotoxicity", "setting": "[1]", "result": "high cytotoxicity"},
      {"measurement": "Relative cell viability (%)", "setting": "[1]; 60 μM", "result": "88.2 ± 6.0", "unit": "%"},
      {"measurement": "Melanin content (%)", "setting": "[3]; TA 60 μM (/L of IM01 and HQ), HQ vehicle DDW", "result": "34.6 ± 2.8", "unit": "%"},
      {"measurement": "Melanin content (%)", "setting": "[3]; TA 120 μM (/H of IM01 and HQ), HQ vehicle DDW", "result": "40.5 ± 3.7", "unit": "%"},
      {"measurement": "Melanin content (%) Mean ± SD", "setting": "[4]; TA 120 μM, Table 21 experiment", "result": "61.5 ± 4.6", "unit": "%"}
    ]}
  ]
}
